Measured values reported in ChEMBL document CHEMBL1201862, “PubChem BioAssay data set” (2004).
The source made the active and inactive calls.

Assays:
[1] = target: DNA repair and recombination protein RAD54-like (Homo sapiens, UniProt Q92698); experiment: inhibitors of human RAD54 branch migration, confirmation, biochemical, fluorescence, cherry-picked samples, dose series (AID 651657); type: functional
[2] = target: 5-hydroxytryptamine receptor 2A (Mus musculus, UniProt P35363); type: functional, cell-based;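 further: CHO-K1 cells with tagged receptor and beta-arrestin; agonist potency measured as compound-induced activation of the receptor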
Chain of 5-hydroxytryptamine receptor 2A (P35363 whole entry): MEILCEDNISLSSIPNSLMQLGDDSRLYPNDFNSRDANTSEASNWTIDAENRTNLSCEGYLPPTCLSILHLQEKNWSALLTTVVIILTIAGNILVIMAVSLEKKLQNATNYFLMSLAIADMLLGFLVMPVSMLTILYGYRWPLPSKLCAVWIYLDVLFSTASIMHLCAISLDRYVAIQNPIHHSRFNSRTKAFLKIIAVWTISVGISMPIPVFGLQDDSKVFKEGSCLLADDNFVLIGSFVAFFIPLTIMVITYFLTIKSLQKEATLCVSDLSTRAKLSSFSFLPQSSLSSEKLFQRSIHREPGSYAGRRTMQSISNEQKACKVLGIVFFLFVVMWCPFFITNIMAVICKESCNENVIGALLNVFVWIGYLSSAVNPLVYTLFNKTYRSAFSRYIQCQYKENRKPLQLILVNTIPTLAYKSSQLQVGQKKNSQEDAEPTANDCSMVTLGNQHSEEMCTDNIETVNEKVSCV

Mu-type opioid receptor = Mu-type opioid receptor (Homo sapiens, UniProt P35372); type: functional, cell-based;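 further: U2OS cells with beta-arrestin recruitment to OPRM1 by beta-gal complementation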
[3] = ARNT/TACC3 interaction disruptors, potency, confirmation, biochemical, AlphaScreen, cherry-picked samples (AID 651703); type: functional, Homo sapiens;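 further: His-tagged ARNT PAS-B domain paired with GST-TACC3 E629A dimer coactivator fragment; potency of inhibitors that break up the complex and lower AlphaScreen signal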
[4] = target: T1, Rac GTPase-activating protein 1 (Homo sapiens, UniProt Q9H0H5); experiment: MgcRacGAP GTPase-activating activity inhibitors, confirmation, biochemical, ADP Hunter fluorescence, primary and confirmatory (AID 624330); type: functional
T1 sequence (Q9H0H5 whole entry): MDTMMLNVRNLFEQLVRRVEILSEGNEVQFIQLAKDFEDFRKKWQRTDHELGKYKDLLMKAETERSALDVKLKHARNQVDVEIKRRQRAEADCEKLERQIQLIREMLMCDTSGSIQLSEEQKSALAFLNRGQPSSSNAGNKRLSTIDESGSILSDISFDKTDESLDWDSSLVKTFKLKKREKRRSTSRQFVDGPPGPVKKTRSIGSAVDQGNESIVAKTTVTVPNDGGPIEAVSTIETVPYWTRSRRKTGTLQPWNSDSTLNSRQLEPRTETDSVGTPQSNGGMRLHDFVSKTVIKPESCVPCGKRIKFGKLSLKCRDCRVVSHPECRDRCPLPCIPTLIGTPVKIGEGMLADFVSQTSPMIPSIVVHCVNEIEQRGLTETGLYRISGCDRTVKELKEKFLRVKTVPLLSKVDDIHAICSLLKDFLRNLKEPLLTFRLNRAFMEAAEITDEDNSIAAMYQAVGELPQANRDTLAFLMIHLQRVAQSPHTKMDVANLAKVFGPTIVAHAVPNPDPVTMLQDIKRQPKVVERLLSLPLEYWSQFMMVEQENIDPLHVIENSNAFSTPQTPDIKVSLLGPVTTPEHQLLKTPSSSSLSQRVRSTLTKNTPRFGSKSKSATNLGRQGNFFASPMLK

[5] = HeLa cell cytotoxicity, dose response, cytotoxicity control for MgcRacGAP inhibitor project (AID 624300); type: functional
[6] = Counterscreen for activators of the function of SWI/SNF related, matrix associated, actin dependent regulator of chromatin, subfamily a, member 2 (SMARCA2, BRM): Luminescence-based cell-based high throughput dose response assay to identify non-selective compounds using the VP16 reporter assay.; type: functional
[7] = target: SWI/SNF-related matrix-associated actin-dependent regulator of chromatin subfamily A member 2 (Homo sapiens, UniProt P51531); experiment: Luminescence-based cell-based high throughput dose response assay to identify activators of the function of SWI/SNF related, matrix associated, actin dependent regulator of chromatin, subfamily a, member 2 (SMARCA2, BRM).; type: functional
Chain of SWI/SNF-related matrix-associated actin-dependent regulator of chromatin subfamily A member 2 (P51531 whole entry): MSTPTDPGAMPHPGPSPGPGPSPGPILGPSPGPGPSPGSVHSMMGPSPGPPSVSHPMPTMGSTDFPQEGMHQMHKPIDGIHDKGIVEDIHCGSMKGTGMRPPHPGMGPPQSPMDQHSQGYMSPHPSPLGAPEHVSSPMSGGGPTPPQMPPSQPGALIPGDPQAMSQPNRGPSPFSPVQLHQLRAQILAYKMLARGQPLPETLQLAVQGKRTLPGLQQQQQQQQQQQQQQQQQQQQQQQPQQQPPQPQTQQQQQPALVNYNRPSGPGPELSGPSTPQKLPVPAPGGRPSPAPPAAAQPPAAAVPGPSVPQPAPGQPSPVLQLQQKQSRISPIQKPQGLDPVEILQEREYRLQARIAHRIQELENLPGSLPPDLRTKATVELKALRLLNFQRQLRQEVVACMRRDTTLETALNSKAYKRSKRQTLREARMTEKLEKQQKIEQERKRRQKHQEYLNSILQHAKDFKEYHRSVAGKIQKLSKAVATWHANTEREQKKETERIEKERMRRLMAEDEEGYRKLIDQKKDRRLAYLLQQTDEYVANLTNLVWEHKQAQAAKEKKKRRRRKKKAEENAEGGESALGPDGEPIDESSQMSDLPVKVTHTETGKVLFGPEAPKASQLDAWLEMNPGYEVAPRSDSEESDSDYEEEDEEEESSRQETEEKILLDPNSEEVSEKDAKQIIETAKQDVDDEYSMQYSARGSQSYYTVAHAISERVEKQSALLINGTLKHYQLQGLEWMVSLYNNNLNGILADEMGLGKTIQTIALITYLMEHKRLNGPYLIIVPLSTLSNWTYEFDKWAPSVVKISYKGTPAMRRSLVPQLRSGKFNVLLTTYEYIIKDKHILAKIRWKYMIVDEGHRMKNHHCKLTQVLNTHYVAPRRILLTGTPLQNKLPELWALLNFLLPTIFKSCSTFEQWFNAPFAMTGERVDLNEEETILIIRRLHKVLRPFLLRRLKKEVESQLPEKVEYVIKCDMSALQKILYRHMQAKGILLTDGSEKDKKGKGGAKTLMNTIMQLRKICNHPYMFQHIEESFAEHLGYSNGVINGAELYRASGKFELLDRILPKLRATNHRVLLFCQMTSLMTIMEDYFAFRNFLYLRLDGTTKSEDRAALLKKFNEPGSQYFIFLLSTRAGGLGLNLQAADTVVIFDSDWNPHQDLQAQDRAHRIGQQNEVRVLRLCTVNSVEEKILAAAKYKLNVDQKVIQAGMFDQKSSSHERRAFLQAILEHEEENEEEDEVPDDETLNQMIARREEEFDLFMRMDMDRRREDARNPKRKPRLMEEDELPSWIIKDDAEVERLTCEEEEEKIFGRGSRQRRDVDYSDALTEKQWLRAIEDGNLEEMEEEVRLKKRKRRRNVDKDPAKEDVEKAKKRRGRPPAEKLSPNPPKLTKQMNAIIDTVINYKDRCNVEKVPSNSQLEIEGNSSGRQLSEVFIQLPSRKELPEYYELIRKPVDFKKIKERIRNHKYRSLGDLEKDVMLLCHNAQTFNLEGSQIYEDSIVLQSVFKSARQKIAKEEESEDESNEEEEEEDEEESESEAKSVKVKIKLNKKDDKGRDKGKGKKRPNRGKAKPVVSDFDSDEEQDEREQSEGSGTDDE

[8] = target: T2, Corticotropin-releasing factor receptor 2/Corticotropin-releasing factor-binding protein (Homo sapiens, UniProt P24387+Q13324); experiment: activators of CRF receptor 2 with binding protein – uHTS hits, confirmation (AID 602473); type: functional; conditions: read-out: EC50_Mean
T2 sequence (Q13324 whole entry): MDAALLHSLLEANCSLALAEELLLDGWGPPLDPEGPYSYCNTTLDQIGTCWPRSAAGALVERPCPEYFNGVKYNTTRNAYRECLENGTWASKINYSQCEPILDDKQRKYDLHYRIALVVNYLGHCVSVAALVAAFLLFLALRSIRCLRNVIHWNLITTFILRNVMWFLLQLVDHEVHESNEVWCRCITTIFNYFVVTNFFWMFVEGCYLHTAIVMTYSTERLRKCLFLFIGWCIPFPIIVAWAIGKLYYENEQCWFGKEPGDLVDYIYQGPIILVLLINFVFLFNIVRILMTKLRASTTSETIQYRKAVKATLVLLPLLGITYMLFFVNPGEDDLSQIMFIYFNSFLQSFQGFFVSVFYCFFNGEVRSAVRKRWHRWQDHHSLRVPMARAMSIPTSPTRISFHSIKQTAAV
T2 sequence (P24387 whole entry): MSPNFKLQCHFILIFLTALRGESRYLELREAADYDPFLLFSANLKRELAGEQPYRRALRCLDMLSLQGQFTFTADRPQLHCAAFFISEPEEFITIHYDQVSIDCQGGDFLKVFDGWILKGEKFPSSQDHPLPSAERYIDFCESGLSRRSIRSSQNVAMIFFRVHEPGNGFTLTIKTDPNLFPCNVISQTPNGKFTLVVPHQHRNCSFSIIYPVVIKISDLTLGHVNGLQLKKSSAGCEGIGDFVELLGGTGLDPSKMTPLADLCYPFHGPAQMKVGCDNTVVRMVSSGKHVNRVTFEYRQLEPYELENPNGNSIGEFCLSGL

[9] = CRF-BP/CRF-R2 complex antagonists, dose response, cell-based, uHTS hits, 384-well (AID 651639); type: functional, Homo sapiens; conditions: read-out: IC50_Mean
[10] = target: T2, Corticotropin-releasing factor receptor 2/Corticotropin-releasing factor-binding protein; experiment: Dose Response confirmation of uHTS hits for small molecule antagonists of the CRF-binding protein and CRF-R2 receptor complex.; type: functional; conditions: read-out: IC50_Mean
Beta-lactamase [11] = target: Beta-lactamase (Pseudomonas aeruginosa, UniProt Q79MP6);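 further: biochemical dose-response test of metallo-beta-lactamase enzyme inhibition, read out by epi-absorbance; purified recombinant IMP-1 metallo-beta-lactamase with nitrocefin as substrate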
Chain of Beta-lactamase (Pseudomonas aeruginosa, UniProt Q79MP6) (Q79MP6 whole entry): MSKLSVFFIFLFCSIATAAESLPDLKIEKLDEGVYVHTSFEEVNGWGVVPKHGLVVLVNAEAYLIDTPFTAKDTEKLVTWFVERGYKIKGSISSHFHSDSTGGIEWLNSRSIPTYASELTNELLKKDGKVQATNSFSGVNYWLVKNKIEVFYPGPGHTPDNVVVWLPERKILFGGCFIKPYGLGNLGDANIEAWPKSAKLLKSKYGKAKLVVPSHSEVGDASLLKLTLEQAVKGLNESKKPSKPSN

Beta-lactamase [12] = target: Beta-lactamase (Salmonella choleraesuis (strain SC-B67), UniProt Q5J463)
Chain of Beta-lactamase (Salmonella choleraesuis (strain SC-B67), UniProt Q5J463) (Q5J463 whole entry): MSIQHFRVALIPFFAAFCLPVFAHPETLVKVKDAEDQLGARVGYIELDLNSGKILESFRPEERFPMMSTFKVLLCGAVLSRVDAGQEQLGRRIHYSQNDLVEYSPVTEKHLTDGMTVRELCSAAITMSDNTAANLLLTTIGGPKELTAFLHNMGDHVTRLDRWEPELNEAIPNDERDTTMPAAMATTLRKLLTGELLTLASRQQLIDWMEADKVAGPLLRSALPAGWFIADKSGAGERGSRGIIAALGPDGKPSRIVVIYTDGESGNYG

Protein skinhead-1 = target: T3, Protein skinhead-1 (Caenorhabditis elegans, UniProt P34707); type: functional
T3 sequence (P34707 whole entry): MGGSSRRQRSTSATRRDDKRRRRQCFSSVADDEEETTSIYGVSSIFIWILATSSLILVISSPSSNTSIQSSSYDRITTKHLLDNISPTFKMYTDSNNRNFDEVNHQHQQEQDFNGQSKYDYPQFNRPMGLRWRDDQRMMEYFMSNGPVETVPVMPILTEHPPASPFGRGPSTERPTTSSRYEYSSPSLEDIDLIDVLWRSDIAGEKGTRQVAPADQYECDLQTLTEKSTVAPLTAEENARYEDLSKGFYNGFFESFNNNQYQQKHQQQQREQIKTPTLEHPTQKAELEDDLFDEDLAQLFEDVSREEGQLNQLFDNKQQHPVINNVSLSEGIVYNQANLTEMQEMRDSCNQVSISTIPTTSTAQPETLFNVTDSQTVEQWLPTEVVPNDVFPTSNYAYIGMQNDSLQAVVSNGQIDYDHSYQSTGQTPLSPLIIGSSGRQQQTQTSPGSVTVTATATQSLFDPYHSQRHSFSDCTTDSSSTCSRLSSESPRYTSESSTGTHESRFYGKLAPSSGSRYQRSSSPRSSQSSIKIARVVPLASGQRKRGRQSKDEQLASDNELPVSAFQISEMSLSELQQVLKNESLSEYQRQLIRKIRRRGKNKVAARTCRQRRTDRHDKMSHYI

Cytochrome P450 2D6 = Cytochrome P450 2D6 (Homo sapiens, UniProt P10635);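 further: CYP2D6 member of a cytochrome P450 panel assay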
Chain of Cytochrome P450 2D6 (P10635 whole entry): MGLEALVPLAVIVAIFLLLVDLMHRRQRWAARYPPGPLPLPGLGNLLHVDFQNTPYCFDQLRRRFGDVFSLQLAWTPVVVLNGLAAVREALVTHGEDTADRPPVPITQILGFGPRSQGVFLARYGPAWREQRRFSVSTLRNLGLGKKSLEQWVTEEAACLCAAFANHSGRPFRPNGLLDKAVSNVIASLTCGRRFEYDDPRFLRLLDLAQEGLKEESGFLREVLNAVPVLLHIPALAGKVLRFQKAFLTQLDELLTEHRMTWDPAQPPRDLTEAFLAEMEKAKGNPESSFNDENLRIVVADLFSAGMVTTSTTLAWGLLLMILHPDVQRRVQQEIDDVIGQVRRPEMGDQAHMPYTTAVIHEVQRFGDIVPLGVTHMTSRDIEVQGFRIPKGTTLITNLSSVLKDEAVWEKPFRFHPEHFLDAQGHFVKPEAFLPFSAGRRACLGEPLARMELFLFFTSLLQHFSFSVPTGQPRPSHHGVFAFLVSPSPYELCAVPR

Cytochrome P450 2C9 = Cytochrome P450 2C9 (Homo sapiens, UniProt P11712)
Chain of Cytochrome P450 2C9 (P11712 whole entry): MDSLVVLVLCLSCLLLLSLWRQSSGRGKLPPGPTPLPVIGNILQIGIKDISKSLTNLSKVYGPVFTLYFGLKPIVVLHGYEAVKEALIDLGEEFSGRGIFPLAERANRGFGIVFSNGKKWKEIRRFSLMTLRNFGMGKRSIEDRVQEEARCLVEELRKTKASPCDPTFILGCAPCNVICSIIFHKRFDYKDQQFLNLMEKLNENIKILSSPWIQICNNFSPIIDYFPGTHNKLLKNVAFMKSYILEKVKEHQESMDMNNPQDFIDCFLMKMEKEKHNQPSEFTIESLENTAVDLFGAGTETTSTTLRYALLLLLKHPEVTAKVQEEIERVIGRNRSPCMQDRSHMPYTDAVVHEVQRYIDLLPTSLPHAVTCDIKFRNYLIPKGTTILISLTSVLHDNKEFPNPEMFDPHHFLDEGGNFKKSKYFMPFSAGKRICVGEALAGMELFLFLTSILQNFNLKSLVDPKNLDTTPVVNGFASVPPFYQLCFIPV

Cytochrome P450 3A4 = Cytochrome P450 3A4 (Homo sapiens, UniProt P08684);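 further: CYP3A4 tested as one member of a cytochrome P450 panel screen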
Chain of Cytochrome P450 3A4 (P08684 whole entry): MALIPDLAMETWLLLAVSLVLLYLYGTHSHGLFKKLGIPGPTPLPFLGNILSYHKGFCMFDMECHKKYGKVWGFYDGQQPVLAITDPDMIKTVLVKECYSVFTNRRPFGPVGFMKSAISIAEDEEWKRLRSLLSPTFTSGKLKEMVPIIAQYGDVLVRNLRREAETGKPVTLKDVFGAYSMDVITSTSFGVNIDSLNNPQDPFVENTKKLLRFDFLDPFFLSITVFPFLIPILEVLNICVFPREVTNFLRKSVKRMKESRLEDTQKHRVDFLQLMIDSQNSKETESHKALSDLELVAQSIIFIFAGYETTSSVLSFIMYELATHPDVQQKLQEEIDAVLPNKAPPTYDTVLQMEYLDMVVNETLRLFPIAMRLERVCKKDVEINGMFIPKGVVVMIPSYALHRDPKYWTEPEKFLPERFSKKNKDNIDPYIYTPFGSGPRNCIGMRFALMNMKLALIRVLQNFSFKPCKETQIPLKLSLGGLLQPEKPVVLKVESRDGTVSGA

[13] = target: T4, DNA repair protein RAD52 homolog (Homo sapiens, UniProt P43351); type: functional, biochemical
T4 sequence (P43351 whole entry): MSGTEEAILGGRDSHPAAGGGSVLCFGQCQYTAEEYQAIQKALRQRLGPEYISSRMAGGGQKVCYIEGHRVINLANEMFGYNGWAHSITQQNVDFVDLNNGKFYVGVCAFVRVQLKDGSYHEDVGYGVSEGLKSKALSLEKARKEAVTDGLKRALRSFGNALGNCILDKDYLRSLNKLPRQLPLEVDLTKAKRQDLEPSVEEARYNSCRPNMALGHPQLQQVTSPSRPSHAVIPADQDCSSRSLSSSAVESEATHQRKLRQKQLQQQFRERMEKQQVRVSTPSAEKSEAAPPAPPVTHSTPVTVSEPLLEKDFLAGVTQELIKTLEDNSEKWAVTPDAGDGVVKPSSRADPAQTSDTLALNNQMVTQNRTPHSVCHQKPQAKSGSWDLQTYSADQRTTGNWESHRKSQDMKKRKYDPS

[14] = A549 cell cytotoxicity, dose response, cytotoxicity control, plate reader, cherry-pick, antagonist series (AID 743412); type: functional, cell-based
[15] = HEK293 cell cytotoxicity, dose response, cytotoxicity control, plate reader, cherry-picked samples (AID 743446); type: functional, cell-based
[16] = MC4R antagonists, dose response, counter-screen for LGR2 antagonist project, cell-based, plate reader, cherry pick (AID 743444); type: functional;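 further: transfected HEK 293 cells stimulated with alpha-MSH peptide; potency of inhibitors of the alpha-MSH evoked signal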
[17] = LGR2 antagonists, dose response, cell-based, HEK293, CRE-luciferase reporter, cherry pick, set 2 (AID 743343); type: functional;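 further: transfected cells were stimulated with diluted bursicon conditioned medium after compound addition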
[18] = HepG2 cell cytotoxicity, dose response, cytotoxicity control, plate reader, cherry-pick, antagonist series (AID 743416); type: functional, cell-based
INS1 = experiment: beta cell apoptosis inhibitors, cytokine rescue, dose response, luminescence, retest (AID 449756); type: functional, cell-based; conditions: Rattus norvegicus;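 further: cell death triggered by IL-1 beta plus TNF-alpha plus IFN-gamma mixture; protective hits raise ATP signal compared with cytokine alone wells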
HeLa = experiment: HeLa cell cytotoxicity, dose response, cytotoxicity control for MITF activator project, CellTiter-Glo luminescence, cherry-pick samples (AID 540259); type: functional, cell-based; conditions: Homo sapiens

Chain of DNA repair and recombination protein RAD54-like (Q92698 whole entry): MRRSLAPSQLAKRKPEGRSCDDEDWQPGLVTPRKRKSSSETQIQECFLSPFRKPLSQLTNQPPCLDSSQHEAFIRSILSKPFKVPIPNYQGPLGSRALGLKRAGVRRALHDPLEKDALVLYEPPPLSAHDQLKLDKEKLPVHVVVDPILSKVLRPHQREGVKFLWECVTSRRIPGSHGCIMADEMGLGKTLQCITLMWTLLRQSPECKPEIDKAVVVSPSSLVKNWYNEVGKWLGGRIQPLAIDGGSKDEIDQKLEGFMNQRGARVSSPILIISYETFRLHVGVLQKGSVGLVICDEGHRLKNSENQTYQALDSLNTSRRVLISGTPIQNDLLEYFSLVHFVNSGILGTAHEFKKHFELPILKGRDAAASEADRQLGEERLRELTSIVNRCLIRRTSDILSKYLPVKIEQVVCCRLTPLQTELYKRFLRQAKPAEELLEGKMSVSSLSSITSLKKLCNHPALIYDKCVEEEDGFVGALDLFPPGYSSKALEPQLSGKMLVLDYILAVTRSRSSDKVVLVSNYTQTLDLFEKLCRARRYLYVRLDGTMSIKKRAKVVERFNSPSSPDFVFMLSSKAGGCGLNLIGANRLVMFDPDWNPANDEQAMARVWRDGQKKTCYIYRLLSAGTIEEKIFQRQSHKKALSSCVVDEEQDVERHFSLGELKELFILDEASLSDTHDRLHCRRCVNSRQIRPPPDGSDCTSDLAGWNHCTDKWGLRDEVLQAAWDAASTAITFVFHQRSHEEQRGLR

Compound: O=C(Nc1cccc(Br)c1)c1cc(S(=O)(=O)N2CCOCC2)cs1
- AC50 [1]: 72.5 µM (active)

Compound: COc1ccc(S(=O)(=O)NCC(c2ccc3c(c2)OCO3)N2CCN(c3ccccc3)CC2)cc1 (stereo not drawn)
- EC50 [2]: 17.2 µM (inactive)
- EC50 (Mu-type opioid receptor): 92.5 µM (inactive)

Compound: CCCCNC(=O)CCC(=O)N1CCN(C(c2ccccc2)c2ccccc2)CC1
- AC50 [3]: 81 µM (active)

Compound: COc1ccc(C(CNC(=O)c2cc3ccccc3cc2O)N2CCOCC2)cc1 (stereo not drawn)
- IC50 [4]: 77 µM (active)
- CC50 [5]: 100 µM (active)

Compound: O=C(CN1CCCCC1)Nc1c2c(nc3ccccc13)N(c1ccccc1)CC2
- EC50 [6]: > 91.2 µM (inactive)
- EC50 [7]: > 91.2 µM (inactive)

Compound: CCOC(=O)C(NC(=O)CC(C)C)(Nc1sc(C)c(CC)c1C#N)C(F)(F)F (stereo not drawn)
- EC50 [8]: > 53 µM (inactive)
- IC50 [9]: > 20 µM (inactive)
- IC50 [10]: 13.6 µM (active)

Compound: COc1ccc2c(Cl)c(C(=O)NCCCn3ccnc3)sc2c1Cl
- IC50 (Beta-lactamase [11]): > 59.6 µM (inactive)
- IC50 (Beta-lactamase [12]): > 59.6 µM (inactive)

Compound: CCOC(=O)NCc1ccc2c(c1)cc(C)n2C
- IC50 (Protein skinhead-1): > 100 µM (inactive)
- AC50 (Cytochrome P450 2D6): inconclusive
- AC50 (Cytochrome P450 2C9): inconclusive
- AC50 (Cytochrome P450 3A4): 14.1 µM (inconclusive)

Compound: Cc1nn2c(nc1=O)NNC2(C)C(C)(C)C (stereo not drawn)
- AC50 [3]: 130 µM (active)

Compound: c1ccc2c(NCCCN3CCOCC3)c3ccccc3nc2c1
- AC50 [13]: 1.06 µM (active)
- AC50 [14]: 3.28 µM (active)
- AC50 [15]: 3.16 µM (active)
- AC50 [16]: 31.3 µM (active)
- AC50 [17]: 21 µM (active)
- EC50 [6]: > 91.2 µM (inactive)
- AC50 [18]: 3.54 µM (active)
- EC50 [7]: > 3.38 µM (active)
- AC50 (INS1): 2.33 µM (active)

Compound: Cc1nc(NC(C)C)c2cnn(CCc3ccccc3)c2n1
- AC50 (HeLa): 84.6 µM (active)
